Data published in the supplement of paper PMC10331698.
± gives the standard deviation of the averaged measurements.

Legend:
Test in all cases: level (log10 ratio to DMSO vehicle control); higher = higher biomarker level / cell amount than vehicle control
[1] = compound: O=C(O)C(F)(F)OC(F)(F)C(F)(F)OC(F)(F)C(F)(F)OC(F)(F)C(F)(F)C(F)(F)C(F)(F)F [Perfluoro-3,6,9-trioxatridecanoic acid] (in DMSO); settings: 6700 nM
Procedure: (§1)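 BioMAP Diversity Plus panel of 12 human primary cell co-culture systems (3C, 4H, LPS, SAg, BT, BF4T, BE3C, CASM3C, HDF3CGF, KF3CT, MyoF, Mphg). Compounds were added 1 h before stimulation and left for 24 h (MyoF 48 h; BT 72 h for soluble read-outs or 6 d for IgG). Biomarkers were read by ELISA, cytotoxicity by SRB, PBMC viability and proliferation by Alamar Blue. Each well value was divided by the mean of 8 DMSO control wells on the same plate and log10 transformed; duplicate blinded samples were tested at 4 concentrations.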

[2] = compound: OCCC(F)(F)C(F)(F)C(F)(F)C(F)(F)F [4:2 Fluorotelomer alcohol] (in DMSO)
Procedure: as §1

[3] = compound: O=C(O)C(F)(OC(F)(F)C(F)(F)C(F)(F)F)C(F)(F)F [Ammonium perfluoro-2-methyl-3-oxahexanoate] (in Water)
Procedure: as §1

[4] = compound: O=C(O)C(F)(OC(F)(F)C(F)(OC(F)(F)C(F)(OC(F)(F)C(F)(F)C(F)(F)F)C(F)(F)F)C(F)(F)F)C(F)(F)F [Perfluoro-(2,5,8-trimethyl-3,6,9-trioxadodecanoic)acid] (in DMSO)
Procedure: as §1

[5] = compound: O=C(O)C(F)(F)C(F)(F)C(F)(F)OC(F)(F)F [Perfluoro(4-methoxybutanoic) acid] (in DMSO)
Procedure: as §1

[6] = compound: O=C(O)C=C(C(F)(F)F)C(F)(F)F [3,3-Bis(trifluoromethyl)-2-propenoic acid] (in DMSO)
Procedure: as §1

[7] = compound: O=S(=O)(O)C(F)(F)C(F)(F)OC(F)(F)C(F)(F)F [Perfluoro(2-ethoxyethane)sulfonic acid] (in DMSO)
Procedure: as §1

Row | Test System | level (log10) [1] | level (log10) ([2]; 6700 nM) | level (log10) ([2]; 20000 nM) | level (log10) ([2]; 60000 nM) | level (log10) ([3]; 6700 nM) | level (log10) ([3]; 20000 nM) | level (log10) ([3]; 60000 nM) | level (log10) ([4]; 1100 nM) | level (log10) ([4]; 3300 nM) | level (log10) ([4]; 10000 nM) | level (log10) ([5]; 6700 nM) | level (log10) ([5]; 20000 nM) | level (log10) ([5]; 60000 nM) | level (log10) ([6]; 6700 nM) | level (log10) ([6]; 20000 nM) | level (log10) ([6]; 60000 nM) | level (log10) ([7]; 6700 nM) | level (log10) ([7]; 20000 nM) | level (log10) ([7]; 60000 nM)
1 | 3C:CD87/uPAR | 0.0095 ± 0.028 | -0.015 ± 0.014 | -0.0215 ± 0.028 | 0.005 ± 0.0071 | -0.016 ± 0.054 | -0.0085 ± 0.028 | -0.042 ± 0.021 | -0.0075 ± 0.016 | -0.0005 ± 0.011 | -0.0105 ± 0.019 | -0.03 ± 0.058 | -0.035 ± 0.051 | -0.0265 ± 0.04 | 0.0225 ± 0.0035 | 0.014 ± 0.02 | -0.0035 ± 0.013 | 0.0105 ± 0.0064 | 0.0165 ± 0.0021 | 0.007 ± 0.0071
2 | 3C:CXCL8/IL-8 | -0.003 ± 0.027 | -0.002 | 0.017 ± 0.031 | 0.044 ± 0.059 | 0.038 ± 0.037 | 0.0745 ± 0.029 | 0.131 ± 0.014 | -0.004 ± 0.021 | -0.015 ± 0.011 | 0.005 ± 0.024 | 0.008 ± 0.014 | 0.001 ± 0.0099 | 0.022 ± 0.025 | 0.038 ± 0.02 | 0.0255 ± 0.04 | 0.061 ± 0.071 | 0.0295 ± 0.028 | 0.0455 ± 0.074 | 0.095 ± 0.062
3 | 3C:CXCL9/MIG | 0.0115 ± 0.00071 | -0.01 ± 0.0057 | -0.0025 ± 0.0078 | 0 ± 0.0042 | -0.0085 ± 0.011 | -0.003 ± 0.0099 | -0.004 | 0.0125 ± 0.0078 | -0.0035 ± 0.021 | 0.007 ± 0.0071 | -0.012 ± 0.013 | -0.012 ± 0.017 | -0.001 ± 0.013 | -0.015 ± 0.017 | -0.004 ± 0.028 | 0.013 ± 0.025 | -0.0005 ± 0.0064 | -0.0045 ± 0.0035 | 0.0075 ± 0.0021
4 | 3C:HLA-DR | -0.018 ± 0.04 | -0.019 | -0.0145 ± 0.0092 | 0 ± 0.011 | 0.0075 ± 0.011 | 0.0175 ± 0.028 | 0.016 ± 0.0014 | -0.0045 ± 0.0078 | -0.002 ± 0.0057 | 0.0115 ± 0.013 | 0.0105 ± 0.013 | 0.0055 ± 0.023 | 0.0015 ± 0.016 | -0.012 ± 0.014 | -0.0415 ± 0.039 | -0.189 ± 0.031 | -0.005 | -0.0045 ± 0.005 | 0.008 ± 0.0099
5 | 3C:Proliferation | 0.0425 ± 0.016 | -0.011 ± 0.014 | -0.0175 ± 0.032 | 0.013 ± 0.024 | -0.0765 ± 0.015 | -0.136 ± 0.031 | -0.149 ± 0.023 | 0.007 ± 0.02 | 0.013 ± 0.0085 | -0.011 ± 0.013 | -0.057 ± 0.023 | -0.0055 ± 0.046 | -0.036 ± 0.03 | -0.0425 ± 0.0021 | -0.089 ± 0.02 | -0.189 ± 0.1 | -0.043 ± 0.025 | -0.027 ± 0.034 | -0.0325 ± 0.042
6 | 3C:SRB | -0.002 ± 0.014 | -0.006 ± 0.0085 | -0.0065 ± 0.011 | -0.0045 ± 0.0092 | -0.019 ± 0.011 | -0.021 ± 0.0042 | -0.045 | -0.0025 ± 0.005 | -0.0065 ± 0.0035 | 0.003 ± 0.0071 | -0.0175 ± 0.018 | -0.0255 ± 0.018 | -0.0195 ± 0.0064 | 0.0105 ± 0.019 | -0.005 ± 0.025 | -0.062 ± 0.03 | -0.022 ± 0.0042 | -0.0025 ± 0.00071 | -0.0275 ± 0.0021
7 | 4H:CCL2/MCP-1 | -0.029 ± 0.0099 | -0.101 ± 0.0071 | -0.0325 ± 0.0064 | 0.0115 ± 0.025 | 0.0005 ± 0.029 | 0.007 ± 0.037 | 0.008 ± 0.051 | 0.0005 ± 0.012 | -0.017 ± 0.0099 | 0.0205 ± 0.021 | -0.0235 ± 0.013 | -0.026 ± 0.0028 | 0.0005 ± 0.061 | -0.051 ± 0.035 | -0.0675 ± 0.005 | -0.081 ± 0.052 | -0.019 ± 0.05 | -0.008 ± 0.021 | -0.0015 ± 0.016
8 | 4H:CCL26/Eotaxin-3 | -0.007 ± 0.038 | -0.018 ± 0.016 | -0.0045 ± 0.0035 | -0.0015 ± 0.0035 | -0.0615 ± 0.0021 | -0.064 ± 0.0014 | -0.118 ± 0.012 | 0.0005 ± 0.0078 | -0.0095 ± 0.023 | -0.0075 ± 0.005 | 0.018 ± 0.0085 | 0.0205 ± 0.013 | 0.0245 ± 0.023 | -0.02 ± 0.044 | -0.042 ± 0.0042 | -0.121 ± 0.0064 | 0.049 ± 0.027 | 0.0585 ± 0.0078 | 0.0405 ± 0.00071
9 | 4H:CD62P/P-selectin | 0.033 ± 0.023 | -0.0235 ± 0.037 | -0.02 ± 0.0071 | 0.025 ± 0.023 | -0.0475 ± 0.012 | -0.0065 ± 0.03 | -0.054 ± 0.048 | -0.002 ± 0.069 | 0.0295 ± 0.0064 | -0.0445 ± 0.026 | 0.0035 ± 0.0078 | 0.033 ± 0.068 | -0.005 ± 0.059 | 0.005 ± 0.0042 | -0.0505 ± 0.022 | -0.164 ± 0.028 | -0.02 ± 0.014 | 0.0445 ± 0.005 | -0.0105 ± 0.015
10 | 4H:CD87/uPAR | 0.0145 ± 0.03 | -0.026 ± 0.011 | -0.0105 ± 0.023 | -0.005 ± 0.0028 | -0.033 ± 0.027 | -0.024 ± 0.033 | -0.06 ± 0.0014 | 0.001 ± 0.027 | -0.0025 ± 0.011 | 0.0075 ± 0.0092 | 0.0495 ± 0.039 | 0.035 ± 0.048 | 0.046 ± 0.04 | -0.053 ± 0.038 | -0.0455 ± 0.037 | -0.025 ± 0.062 | 0.017 ± 0.062 | 0.0005 ± 0.049 | 0.0065 ± 0.059
11 | 4H:CD106/VCAM-1 | -0.023 ± 0.0085 | -0.025 ± 0.023 | -0.0105 ± 0.013 | 0.0085 ± 0.0078 | -0.0455 ± 0.005 | -0.0365 ± 0.018 | -0.037 ± 0.021 | 0.019 ± 0.013 | 0.027 ± 0.014 | 0.049 ± 0.0099 | -0.0105 ± 0.012 | -0.0075 ± 0.005 | -0.002 ± 0.018 | -0.12 ± 0.037 | -0.143 ± 0.017 | -0.25 ± 0.028 | -0.0085 ± 0.00071 | 0.0075 ± 0.037 | 0.01 ± 0.033
12 | 4H:SRB | 0.0035 ± 0.0092 | -0.0005 ± 0.012 | -0.004 ± 0.0014 | 0.0135 ± 0.015 | -0.0075 ± 0.012 | -0.018 ± 0.014 | -0.0115 ± 0.005 | 0.0045 ± 0.0064 | 0 ± 0.0028 | 0.009 ± 0.0057 | -0.01 ± 0.0014 | -0.018 ± 0.0099 | -0.0155 ± 0.0021 | -0.008 ± 0.0042 | -0.026 ± 0.027 | -0.0615 ± 0.015 | -0.015 ± 0.0057 | -0.0035 ± 0.0021 | -0.016 ± 0.023
13 | 4H:VEGFR2 | -0.0515 ± 0.047 | -0.071 ± 0.035 | -0.021 ± 0.033 | -0.0205 ± 0.0064 | 0.0035 ± 0.04 | 0.007 ± 0.014 | 0.0095 ± 0.018 | -0.002 ± 0.014 | -0.0135 ± 0.005 | 0.001 ± 0.0071 | 0.009 ± 0.033 | 0.019 ± 0.038 | 0.0075 ± 0.011 | -0.02 | -0.019 ± 0.0099 | -0.04 ± 0.0057 | 0.009 ± 0.086 | 0.028 ± 0.057 | 0.0365 ± 0.12
14 | BE3C:CD54/ICAM-1 | -0.688 ± 0.018 | -0.019 ± 0.024 | -0.008 ± 0.0057 | 0.01 ± 0.0028 | -0.007 ± 0.0057 | -0.0025 ± 0.0035 | -0.016 | 0.0115 ± 0.037 | 0.0145 ± 0.033 | 0.0295 ± 0.033 | -0.0015 ± 0.013 | -0.007 ± 0.0085 | -0.007 ± 0.017 | -0.004 ± 0.017 | 0.0025 ± 0.0021 | 0.031 ± 0.04 | 0.001 ± 0.011 | -0.0115 ± 0.0092 | -0.022 ± 0.017
15 | BE3C:CD87/uPAR | -0.48 ± 0.05 | 0.005 ± 0.0099 | -0.0025 ± 0.0064 | 0.0145 ± 0.0021 | 0.011 ± 0.034 | 0.0215 ± 0.0078 | 0.027 ± 0.0085 | -0.0035 ± 0.0021 | -0.011 ± 0.0057 | 0.025 ± 0.024 | 0.0145 ± 0.011 | -0.0195 ± 0.019 | 0.002 ± 0.0099 | -0.0365 ± 0.025 | -0.0635 ± 0.013 | -0.012 ± 0.013 | -0.014 ± 0.035 | 0.012 ± 0.014 | 0.0075 ± 0.0021
